Experimental data as given in patent US5155106A, “Cysteamine derivatives and antirheumatic agents containing cysteamine derivatives” (Terumo Kabushiki Kaisha, priority 1988, dated 1992).

These molecules were tested on adjuvant arthritis of Lewis rats (assay: Suppression of adjuvant arthritis in Lewis rats (hind leg sole edema, Mycobacterium butyricum)). Settings: Rattus norvegicus, 432 h; edema increase vs control group; 100 mg/kg oral once a day; 18 days after sensitization; t-test *P<0.05, **P<0.02, ***P<0.01.
Assay type: in vivo
Description: The compounds according to the present invention obtained in the Examples were evaluated for their effects against adjuvant arthritis (diseased animal model for chronic articular rheumatism) of Lewis rats.
In the Experiment, five six week old male Lewis rats (body weight, 130 to 160 g) were treated as one group.
To right hind leg sole of rats from each group was subcutaneously injected with 0.2 mg of dry culture of Mycobacterium butyricum suspended in liquid paraffin. The compounds were suspended in 5% Tween 80, and the suspensions were orally administered to the rats once a day from the day next to the day of sensitization. The rats of both the medicated groups and the control group (non-medicated group) were intermittently measured for their volume of edema in their hind leg sole to examine the effects of the compounds for suppressing the adjuvant arthritis.
Percent increase in the volume of the hind leg sole due to the edema was calculated on the basis of the volume before sensitization, and suppression was determined by comparing the percent increase of the medicated group with that of the control group.

| Structure (SMILES) | inhibition in vivo at 100 mg/kg [%] |
| --- | --- |
| COc1ccc(C(=O)NC2=NCCS2)c(O)c1 [XIII, 2-(2-hydroxy-4-methoxybenzoylamino)thiazoline] | 23.5 |
| CCCc1c(OC)ccc(C(=O)N2CCSCC2)c1O [XIV, N-(2-hydroxy-3-n-propyl-4-methoxybenzoyl)thiomorpholine] | 21.5 |
| CCCCCCCCSCCNC(=O)c1ccc(OC)cc1O [XIX, 2-(2'-hydroxy-4'-methoxybenzoylamino)ethyl-n-octylsulfide] | 41.4 |
| CCCc1c(OC)ccc(C(=O)N2CCSC2)c1O [XV, N-(2-hydroxy-3-n-propyl-4-methoxybenzoyl)thiazolidine] | 27 |
| CCCc1c(OC)ccc(C(=O)NCc2cccs2)c1O [XVI, N-(2-hydroxy-3-n-propyl-4-methoxybenzoyl)-2-thiophenemethylamine] | 34.4 |
| COc1ccc(C(=O)NCCS)c(O)c1 [XVII, N-(2-hydroxy-4-methoxybenzoyl)cysteamine] | 38.4 |
| CCCc1c(OC)ccc(C(=O)NCCS)c1O [XVIII] | 30.1 |
| CCCCCCCCSCCNC(=O)c1ccc(OC)c(CCC)c1O [XX, 2-(2'-hydroxy-3'-n-propyl-4'-methoxybenzoylamino)ethyl-n-octylsulfide] | 21.1 |

Same assay, conditions: Rattus norvegicus, 432 h; percent increase vs volume before sensitization; 100 mg/kg oral once a day; 18 days after sensitization; control 130.9 ± 5.1 (Table 1), 137.6 ± 15.7 (Table 2), 131.0 ± 10.0 (Table 3); read-out: Increase in volume due to edema

| Structure (SMILES) | change in vivo at 100 mg/kg [%] |
| --- | --- |
| COc1ccc(C(=O)NC2=NCCS2)c(O)c1 [XIII, 2-(2-hydroxy-4-methoxybenzoylamino)thiazoline] | 100 ± 3.1 |
| CCCc1c(OC)ccc(C(=O)N2CCSCC2)c1O [XIV, N-(2-hydroxy-3-n-propyl-4-methoxybenzoyl)thiomorpholine] | 103 ± 10 |
| CCCCCCCCSCCNC(=O)c1ccc(OC)cc1O [XIX, 2-(2'-hydroxy-4'-methoxybenzoylamino)ethyl-n-octylsulfide] | 76.8 ± 17.8 |
| CCCc1c(OC)ccc(C(=O)N2CCSC2)c1O [XV, N-(2-hydroxy-3-n-propyl-4-methoxybenzoyl)thiazolidine] | 95.6 ± 9.6 |
| CCCc1c(OC)ccc(C(=O)NCc2cccs2)c1O [XVI, N-(2-hydroxy-3-n-propyl-4-methoxybenzoyl)-2-thiophenemethylamine] | 85.9 ± 11.1 |
| COc1ccc(C(=O)NCCS)c(O)c1 [XVII, N-(2-hydroxy-4-methoxybenzoyl)cysteamine] | 84.8 ± 10.4 |
| CCCc1c(OC)ccc(C(=O)NCCS)c1O [XVIII] | 91.6 ± 10.9 |
| CCCCCCCCSCCNC(=O)c1ccc(OC)c(CCC)c1O [XX, 2-(2'-hydroxy-3'-n-propyl-4'-methoxybenzoylamino)ethyl-n-octylsulfide] | 103 ± 8.8 |
